Data published in US10077446B2, “Glucan-encapsulated siRNA for treating type 2 diabetes mellitus” (The United States of America, as represented by THE …, priority 2013, dated 2018).

Tests used:
CB2R mRNA = test: siRNA specificity: CB2 receptor expression in peritoneal elicited macrophages (PEC); assay type: cell-based, rat; conditions: thioglycollate-induced PEC
Experimental: The specificity of each siRNA was measured in terms of knockdown of CB2 receptor expression, and a dose-response analysis of siRNA C was carried out.
(§1) Eight-week old ZDF rats were injected i.p. with 4% thioglycollate broth (Sigma-Aldrich). Five days following injection, the peritoneal cavity was washed with PBS and peritoneal fluid was filtered through a 70 μm diameter pore nylon mesh and centrifuged. The pellet was first treated with red blood cell lysis buffer and plated in DMEM supplemented with 10% fetal bovine serum (FBS), 50 μg/ml streptomycin and 50 units/ml penicillin. 24 hours after isolation peritoneal elicited cells (PEC) were treated with siRNA. Eighty, 160 or 240 pmoles of scrambled or CB1R siRNA (Dharmacon) was incubated with 3 nmoles EP in PBS for 15 min and added to 1×10^6 cells. 48 hours after treatment, mRNA were extracted, reversed transcribed and the degree of CB1R knock-down was analyzed by qPCR.
Total mRNA from the liver, pancreas and kidney were extracted with Trizol (Invitrogen), while total mRNA from cells was extracted using RNEASY™ Mini Kit (Qiagen). All extractions were followed by DNase I treatment (Invitrogen). Total mRNA was reverse-transcribed using the ISCRIPT™ cDNA kit (Bio-Rad). […] QUANTITECT™ Primer Assays were used to detect gene expression (Table 3, which lists the primers used for rat and mice (tissue)). […]

[1] = tested on: Zucker diabetic fatty (ZDF) rats; test: 10-day i.p. treatment of ZDF rats with glucan-encapsulated CB1R siRNA (GeRPs); assay type: in vivo, rat; conditions: daily i.p. GeRPs for 10 days
Experimental: Blood glucose levels were determined using the Elite glucometer (Bayer, Pittsburgh, Pa.). […] Plasma insulin was measured using the Ultra Sensitive rat Insulin ELISA kit (Crystal Chem Inc). Hemoglobin A1c was determined using the Rat Hemoglobin A1c (HbA1c) assay kit (Crystal Chem) and c-peptide was quantified by ELISA (C-peptide (rat) ELISA, ALPCO). Serum leptin and adiponectin were determined by ELISA (B-Bridge International). α-amylase, lipase, and uric acid concentrations were determined using commercially available colorimetric kits (BioAssay Systems). TNF-α and IL-1β were determined using TNF-α ELISA Kit (for Lysates) (RayBiotech, Inc.) and IL1β Rat ELISA Kit (Abeam), respectively.
Pancreas was fixed in 10% neutral buffered formalin (NBF), embedded in paraffin and sectioned ([…]) onto glass slides. […] For detection, secondary Ab coupled to FITC or PE were used (Table 2). Images were viewed with a Fluoview FV10i confocal microscope system (Olympus). Images were then analyzed using image J software and the presence or absence of co-localization was assessed by calculating the Pearson's coefficient.
Fluorescein (FITC)-labeled glucan shells were prepared as previously described (Tesz, et al. 2011 Biochemical Journal 436:351-362). To prepare a GeRP dose for one rat, 50 nmoles siRNA (Dharmacon) were incubated with 500 nmoles Endo-Porter (Gene Tools) in 30 mM sodium acetate pH 4.8 for 15 min at RT in a final volume of 200 μl. The siRNA/Endo-Porter solution was added to 10 mg ([…]) of FITC-glucan shells and then vortexed and incubated for 1 hour. The siRNA loaded GeRPs were then resuspended in 5 ml PBS and sonicated to ensure homogeneity of the GeRP preparation. […]
Total mRNA from the liver, pancreas and kidney were extracted with Trizol (Invitrogen), while total mRNA from cells was extracted using RNEASY™ Mini Kit (Qiagen). […] QUANTITECT™ Primer Assays were used to detect gene expression (Table 3, which lists the primers used for rat and mice (tissue)). […]

CB1R mRNA = test: CB1R gene silencing by siRNA/EP in peritoneal elicited macrophages (PEC), qPCR; assay type: cell-based, rat
Experimental: as §1
Total mRNA from the liver, pancreas and kidney were extracted with Trizol (Invitrogen), while total mRNA from cells was extracted using RNEASY™ Mini Kit (Qiagen). All extractions were followed by DNase I treatment (Invitrogen). Total mRNA was reverse-transcribed using the ISCRIPT™ cDNA kit (Bio-Rad). Real-time PCR was performed as described previously (Jourdan, et al. 2010 Diabetes 59:926-934) in a 96-well plate using a STEPONEPLUS™ real time PCR system (Applied Biosystems). QUANTITECT™ Primer Assays were used to detect gene expression (Table 3, which lists the primers used for rat and mice (tissue)). […]

Q: For “sense GCAUCAAGAGCACCGUUAAUU (SEQ ID NO: 9), antisense UUAACGGUGCUCUUGAUGCUU (SEQ ID NO: 10) (listed as RNA, chemistry not given here) [siRNA C, siRNA directed against rat CB1R, selected for in vivo use]”, which “CB2R mRNA” value (CB2R mRNA) is on record?
A: no change

Q: What about the glycemia and insulinemia [1] of the same substance?
A: remained normoglycemic and hyperinsulinemic

Q: And the “insulin expression and content in islets” value [1]?
A: increased

Q: What about the “macrophage infiltration and expression of Nlrp3-ASC, IL-1β, IL-18, MCP-1 and CB1R” value [1] of the same substance?
A: decreased

Q: And the “degree of knockdown among the four siRNA sequences” value (CB1R mRNA; rat CB1R siRNAs A-D)?
A: greatest degree of knockdown

Q: And the “suppression of CB1R mRNA” value (CB1R mRNA; thioglycollate-induced PEC, 48 h, dose-dependent, preliminary experiments)?
A: > 95%
